Measured values reported in patent US20110081316A1, “PYRAZOLE INHIBITORS OF PHOSPHATIDYLINOSITOL 3-KINASE” (VERTEX PHARMACEUTICALS INCORPORATED, priority 2009, published 2011).

Target: PI3K-gamma (Homo sapiens, UniProt P48736)
Assay: PI3K Inhibition Assay (33P-ATP, PI(4,5)P2 substrate, filter plate scintillation counting)
Format: biochemical
Details: 2 nM enzyme, 3 μM ATP, 30 μM PI(4,5)P2, 30 min at 25° C.; competitive tight binding Ki fit
Method: Using a Biomek FX from Beckman Coulter, 1.5 μL of each of ten 2.5-fold serial dilutions of a compound of the invention in 100% DMSO was added to an individual well (hereafter, “test well”) in a 96 well polystyrene plate [Corning, Costar Item No. 3697]. One test well also contained 1.5 μL of DMSO with no compound. […] Using a Titertek Multidrop, 50 μL of Reaction Mix [100 mM HEPES pH 7.5, 50 mM NaCl, 10 mM DTT, 0.2 mg/mL BSA, 60 μM phosphatidylinositol(4,5)bisphosphate diC16 (PI(4,5)P2; Avanti Polar Lipids, Cat. No. 840046P) and PI3K isoform of interest (see Table 3 for isoform concentrations)] was added to each well. To initiate the reaction, 50 μL of ATP Mix [20 mM MgCl2, 6 μM ATP (100 μCi/μmmole ^33P-ATP)] was added each well, followed by incubating the wells for 30 min. at 25° C. Final concentrations in each well were 50 mM HEPES 7.5, 10 mM MgCl2, 25 mM NaCl, 5 mM DTT, 0.1 mg/mL BSA, 30 μM PI(4,5)P2, 3 μM ATP, and the PI3K isoform of interest (see Table 3). Final compound concentrations in each well ranged from 10 μM to 1 nM. [table] After incubation, the reactions in each well were quenched by addition of 50 μL of stop solution [30% TCA/Water, 10 mM ATP]. Each quenched reaction mixture was then transferred to a 96 well glass fiber filter plate [Corning, Costar Item No. 3511]. The plate was vacuum-filtered and washed three times with 150 μL of 5% TCA/water in a modified Bio-Tek Instruments ELX-405 Auto Plate Washer. 50 μL of scintillation fluid was added to each well and the plate read on a Perkin-Elmer TopCount™ NXT liquid scintillation counter to obtain ^33P-counts representing inhibition values. The value for the background well was subtracted from the value obtained for each test well and the data were fit to the competitive tight binding Ki equation described by Morrison and Stone, Comments Mol. Cell. Biophys. 2: 347-368, 1985.

Sequence of PI3K-gamma (P48736 whole entry, species assumed): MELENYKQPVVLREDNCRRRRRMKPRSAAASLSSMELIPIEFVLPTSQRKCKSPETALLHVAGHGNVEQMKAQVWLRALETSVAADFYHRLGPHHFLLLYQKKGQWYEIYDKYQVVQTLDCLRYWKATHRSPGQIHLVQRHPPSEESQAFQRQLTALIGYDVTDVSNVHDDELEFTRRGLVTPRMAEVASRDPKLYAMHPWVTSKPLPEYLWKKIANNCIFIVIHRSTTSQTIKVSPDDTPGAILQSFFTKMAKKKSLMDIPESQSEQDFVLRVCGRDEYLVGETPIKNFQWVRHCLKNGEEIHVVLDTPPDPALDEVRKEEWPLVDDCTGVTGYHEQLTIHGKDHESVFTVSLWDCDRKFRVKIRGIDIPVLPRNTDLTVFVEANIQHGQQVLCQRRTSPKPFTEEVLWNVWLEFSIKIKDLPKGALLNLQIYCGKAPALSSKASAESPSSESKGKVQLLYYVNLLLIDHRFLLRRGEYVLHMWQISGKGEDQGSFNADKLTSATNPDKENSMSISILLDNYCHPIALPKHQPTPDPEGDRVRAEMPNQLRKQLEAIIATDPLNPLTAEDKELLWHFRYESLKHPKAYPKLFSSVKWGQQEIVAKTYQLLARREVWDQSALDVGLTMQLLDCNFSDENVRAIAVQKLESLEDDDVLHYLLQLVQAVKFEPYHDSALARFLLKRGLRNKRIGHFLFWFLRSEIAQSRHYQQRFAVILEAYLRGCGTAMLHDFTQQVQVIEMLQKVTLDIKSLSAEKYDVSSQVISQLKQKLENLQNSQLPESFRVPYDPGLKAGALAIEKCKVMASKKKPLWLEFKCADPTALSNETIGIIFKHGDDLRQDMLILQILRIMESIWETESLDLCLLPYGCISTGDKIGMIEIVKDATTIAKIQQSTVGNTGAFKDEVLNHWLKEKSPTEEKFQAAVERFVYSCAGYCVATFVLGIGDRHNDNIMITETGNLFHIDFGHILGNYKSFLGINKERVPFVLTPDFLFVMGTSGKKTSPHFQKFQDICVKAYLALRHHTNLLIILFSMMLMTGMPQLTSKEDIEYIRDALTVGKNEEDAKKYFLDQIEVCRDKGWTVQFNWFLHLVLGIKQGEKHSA

SMILES	Ki
COc1cc(C#Cc2cc(NC(=O)NC[C@H](C)OCC3CC3)nn2C)cnc1OC [Compound 14]	< 100 nM
COc1cc(C#Cc2cc(NC(=O)NC[C@@H](C)OCC3CC3)nn2C)cnc1OC [Compound 11]	< 100 nM
Cn1nc(NC(=O)NCCOCC2CC2)cc1C#Cc1ccc(N)nc1 [Compound 7]	< 100 nM
C[C@@H](CNC(=O)Nc1cc(C#Cc2ccc3nccnc3c2)n(C)n1)OCC1CC1 [Compound 12]	< 100 nM
COc1cncc(C#Cc2cc(NC(=O)NCCOCC3CC3)nn2C)c1 [Compound 6]	< 100 nM
Cn1nc(NC(=O)NCCOCC2CC2)cc1C#Cc1ccc2nccnc2c1 [Compound 9]	< 100 nM
Cn1nc(NC(=O)NCCc2cn(CC(F)F)cn2)cc1C#Cc1cccnc1 [Compound 3]	< 100 nM
Cn1nc(NC(=O)NCCOCC2CC2)cc1C#Cc1cccnc1Cl [Compound 8]	< 100 nM
